Reference: PubChem BioAssay AID248 (DTP/NCI, 2004)
Where “and” joins values, the source holds several entries; their conditions need not be identical. Equal values may be shown once. Toxic doses and inconclusive results are not listed. Cut-off read from the data, not from the text of the source: active = T/C of 150% or more; inactive = T/C below 125%.

Test system: L1210 leukemia ip in BDF1 mice, survival T/C
Assay: NCI In Vivo Anticancer Drug Screen. Data for tumor model L1210 Leukemia (intraperitoneal) in B6D2F1 (BDF1) mice
Settings: endpoint: mean survival time, higher = longer survival
Summary of the method: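 Each compound was tested against a transplantable tumor grown in mice. The endpoint was survival, with treated animals benchmarked against vehicle controls as a simple ratio.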

[1] = dose: 50.0 mg/kg/injection, schedule: Q01DX009 (ip), vehicle: saline with Tween-80
[2] = dose: 100.0 mg/kg/injection, schedule: Q01DX009 (ip), vehicle: saline with Tween-80
[3] = dose: 200.0 mg/kg/injection, schedule: Q01DX009 (ip), vehicle: saline with Tween-80
[4] = dose: 12.5 mg/kg/injection, schedule: Q01DX009 (ip), vehicle: saline
[5] = dose: 25.0 mg/kg/injection, schedule: Q01DX009 (ip), vehicle: saline
[6] = dose: 100.0 mg/kg/injection, schedule: Q04DX003 (ip), vehicle: Klucel (hydroxypropylcellulose) (HPC)
[7] = dose: 200.0 mg/kg/injection, schedule: Q04DX003 (ip), vehicle: Klucel (hydroxypropylcellulose) (HPC)
[8] = dose: 100.0 mg/kg/injection, schedule: Q04DX002 (ip), vehicle: Klucel (hydroxypropylcellulose) (HPC)
[9] = dose: 200.0 mg/kg/injection, schedule: Q04DX002 (ip), vehicle: Klucel (hydroxypropylcellulose) (HPC)
[10] = dose: 400.0 mg/kg/injection, schedule: Q04DX002 (ip), vehicle: Klucel (hydroxypropylcellulose) (HPC)
[11] = dose: 100.0 mg/kg/injection, schedule: Q01DX009 (ip), vehicle: Klucel (hydroxypropylcellulose) (HPC)
[12] = dose: 200.0 mg/kg/injection, schedule: Q01DX009 (ip), vehicle: Klucel (hydroxypropylcellulose) (HPC)
[13] = dose: 400.0 mg/kg/injection, schedule: Q01DX009 (ip), vehicle: Klucel (hydroxypropylcellulose) (HPC)
[14] = dose: 50.0 mg/kg/injection, schedule: Q01DX009 (ip), vehicle: saline
[15] = dose: 100.0 mg/kg/injection, schedule: Q01DX001 (ip), vehicle: saline
[16] = dose: 200.0 mg/kg/injection, schedule: Q01DX001 (ip), vehicle: saline
[17] = dose: 400.0 mg/kg/injection, schedule: Q01DX001 (ip), vehicle: saline
[18] = dose: 400.0 mg/kg/injection, schedule: Q04DX003 (ip), vehicle: Klucel (hydroxypropylcellulose) (HPC)
[19] = dose: 25.0 mg/kg/injection, schedule: Q01DX009 (ip), vehicle: Klucel (hydroxypropylcellulose) (HPC)

Measured: T/C

O=C1NC(=O)C(CSCc2ccccc2)(CSCc2ccccc2)N1
inactive: [1] 94 % of control | [2] 92 % of control and 102 % of control | [3] 94 % of control and 97 % of control | dose: 400.0 mg/kg/injection, schedule: Q01DX009 (ip), vehicle: saline with Tween-80 100 % of control

CC/C(C)=N/NCCO
inactive: dose: 12.5 mg/kg/injection, schedule: Q01DX001 (ip), vehicle: saline 114 % of control | [4] 93 % of control | dose: 25.0 mg/kg/injection, schedule: Q01DX001 (ip), vehicle: saline 101 % of control | [5] 97 % of control | dose: 50.0 mg/kg/injection, schedule: Q01DX001 (ip), vehicle: saline 103 % of control and 104 % of control

CCN1CCCC(Nc2cc(C)nc(/N=C(\N)Nc3ccc(Cl)c(Cl)c3)n2)C1 (configuration not stated)
inactive: dose: 75.0 mg/kg/injection, schedule: Q01DX001 (ip), vehicle: saline 92 % of control

CCCOc1ccc(Nc2c3ccccc3nc3ccccc23)cc1
inactive: [6] 102 % of control | [7] 96 % of control

Nc1nc(N)c(C=Nc2ccc(Br)cc2)c(Nc2ccc(Br)cc2)n1
inactive: dose: 50.0 mg/kg/injection, schedule: Q01DX001 (ip), vehicle: alcohol 100 % of control

C=CC[n+]1c(C)ccc2ccccc21
inactive: dose: 25.0 mg/kg/injection, schedule: Q01DX009 (ip), vehicle: saline with Tween-80 100 % of control | [1] 115 % of control | dose: 100.0 mg/kg/injection, schedule: Q01DX001 (ip), vehicle: saline with Tween-80 114 % of control

COc1ccc([N+](=O)[O-])cc1NC(=O)Nc1cccc(C(F)(F)F)c1
inactive: [8] 96 % of control | [9] 101 % of control | [10] 96 % of control

NC(=O)c1ccccc1NC(=O)Nc1cccc(C(F)(F)F)c1
inactive: [11] 86 % of control | [8] 102 % of control | [12] 89 % of control | [9] 105 % of control | [13] 93 % of control | [10] 108 % of control

CC(C)=NNC(N)=O
inactive: [4] 97 % of control | [5] 100 % of control | dose: 25.0 mg/kg/injection, schedule: Q04DX002 (ip), vehicle: saline 98 % of control | [14] 94 % of control | dose: 50.0 mg/kg/injection, schedule: Q04DX002 (ip), vehicle: saline 103 % of control

COc1cc(C=O)ccc1OC(=O)Nc1ccc(Cl)cc1C(F)(F)F
inactive: [1] 89 % of control | [2] 100 % of control | [3] 96 % of control

CCCCCCCCCCCC(=O)NC(=S)Nc1ccc(N(C)C)cc1
inactive: [8] 93 % of control | [9] 108 % of control | [10] 90 % of control

Nc1ccc(CCc2ccc(S(=O)(=O)F)cc2)cc1
inactive: [15] 108 % of control | [16] 103 % of control | [17] 102 % of control

COc1cccc(/C2=C/CCCCCC2)c1
inactive: dose: 50.0 mg/kg/injection, schedule: Q01DX009 (ip), vehicle: acetone 95 % of control | dose: 100.0 mg/kg/injection, schedule: Q01DX009 (ip), vehicle: acetone 107 % of control | dose: 100.0 mg/kg/injection, schedule: Q04DX003 (ip), vehicle: acetone 100 % of control | dose: 200.0 mg/kg/injection, schedule: Q01DX009 (ip), vehicle: acetone 93 % of control | dose: 200.0 mg/kg/injection, schedule: Q04DX003 (ip), vehicle: acetone 105 % of control | dose: 400.0 mg/kg/injection, schedule: Q04DX003 (ip), vehicle: acetone 91 % of control

C1CCc2nnnn2CC1
inactive: dose: 6.25 mg/kg/injection, schedule: Q01DX009 (ip), vehicle: saline 111 % of control | [4] 101 % of control and 97 % of control | dose: 12.5 mg/kg/injection, schedule: Q04DX003 (ip), vehicle: saline 103 % of control | [5] 109 % of control and 90 % of control | dose: 25.0 mg/kg/injection, schedule: Q04DX003 (ip), vehicle: saline 101 % of control | [14] 96 % of control | dose: 50.0 mg/kg/injection, schedule: Q04DX003 (ip), vehicle: saline 95 % of control and 106 % of control

COC(=O)CCCCC(=O)OCC#CC#CCOC(=O)CCCCC(=O)OC
inactive: [11] 95 % of control | [6] 91 % of control | [12] 104 % of control | [7] 92 % of control | [13] 98 % of control | [18] 92 % of control

CC(=O)Nc1ccc(O)cc1
inactive: dose: 100.0 mg/kg/injection, schedule: Q01DX001 (ip), vehicle: carboxymethylcellulose (CMC) 93 % of control | dose: 100.0 mg/kg/injection, schedule: Q04DX002 (ip), vehicle: saline 116 % of control | [6] 97 % of control | dose: 200.0 mg/kg/injection, schedule: Q01DX001 (ip), vehicle: carboxymethylcellulose (CMC) 96 % of control | dose: 200.0 mg/kg/injection, schedule: Q04DX002 (ip), vehicle: saline 100 % of control | [7] 104 % of control | dose: 400.0 mg/kg/injection, schedule: Q01DX001 (ip), vehicle: carboxymethylcellulose (CMC) 107 % of control | dose: 400.0 mg/kg/injection, schedule: Q04DX002 (ip), vehicle: saline 88 % of control | [18] 111 % of control

COC1OC(CCl)C(OC(=O)c2ccccc2)C(OC(=O)c2ccccc2)C1OC(=O)c1ccccc1 (configuration not stated)
inactive: [8] 114 % of control | [9] 101 % of control | [10] 104 % of control

Cc1cc(C)c(NC(=O)c2c(Br)c(Br)c(Br)c(Br)c2C(=O)O)c(C)c1
inactive: [8] 101 % of control | [9] 111 % of control | [10] 87 % of control

NC(=S)N/N=C(\c1ccccc1)c1cccc2ccccc12
inactive: [19] 91 % of control | dose: 50.0 mg/kg/injection, schedule: Q01DX009 (ip), vehicle: Klucel (hydroxypropylcellulose) (HPC) 91 % of control | [8] 93 % of control

[Cl][Rh][Cl].c1cn[nH]c1.c1cn[nH]c1.c1cn[nH]c1.c1cn[nH]c1
inactive: dose: 12.5 mg/kg/injection, schedule: Q01DX009 (ip), vehicle: Klucel (hydroxypropylcellulose) (HPC) 98 % of control | dose: 12.5 mg/kg/injection, schedule: Q04DX003 (ip), vehicle: Klucel (hydroxypropylcellulose) (HPC) 90 % of control | [19] 89 % of control | dose: 25.0 mg/kg/injection, schedule: Q04DX003 (ip), vehicle: Klucel (hydroxypropylcellulose) (HPC) 95 % of control | dose: 50.0 mg/kg/injection, schedule: Q04DX003 (ip), vehicle: Klucel (hydroxypropylcellulose) (HPC) 102 % of control

CS(=O)(=O)OCC1CCC(COS(C)(=O)=O)CC1 (configuration not stated)
inactive: [6] 103 % of control | [7] 100 % of control | [18] 102 % of control

COc1ccccc1CC(=O)Oc1ccccc1
inactive: [15] 97 % of control | [16] 96 % of control | [17] 102 % of control
